From patent US10787481B2, “Sugar-dipeptide conjugates as flavor molecules” (NESTEC S.A., priority 2015, dated 2020)
Like-named read-outs stand apart in the source and are kept apart here.

Tests used:
sensory panel [1] = test: Taste threshold concentration in model broth (sensory panel, triangle test); type: in vivo, human; conditions: versus β-alanyl-L-glycine
Experimental: The sensory tests were performed in a sensory panel room at 20-25° C. To avoid a retro-nasal aroma or taste impression, nose clips were used. The sensory panel consisted of 8 to 14 trained persons. The panel was trained to evaluate the taste of aqueous solutions (1 mL each) of the following standard taste compounds by using a triangle test: saccharose (50 mmol/L) and L-alanine (15 mmol/L), respectively, for sweet taste; lactic acid (20 mmol/L) for sour taste; NaCl (12 mmol/L) for salty taste; caffeine (1 mmol/L) and quinine hydrochloride (0.05 mmol/L), respectively, for bitter taste; sodium glutamate (8 mmol/L, pH 5.7) for umami taste; and tannin (0.05%) for astringency. The “white meaty” oral sensations was assessed in a model broth solution prepared from monosodium glutamate monohydrate (1.9 g/L), yeast extract (2.1 g/L), maltodextrin (6.375 g/L) and sodium chloride (2.9 g/L) in bottled water (pH 5.9).

sensory panel [2] = conditions: chicken soup with 1 g monosodium glutamate in 500 mL; compound at 2 g/L; 12 panelists
Experimental: Chicken soups were prepared by dissolving 6 g chicken base powder (detailed recipe shown in Table 1) and 1 g monosodium glutamate in 500 mL hot water.
The sensory evaluation was carried out by 12 panelists, previously screened for their sensory abilities.

sensory panel [3] = conditions: tomato soup; compound at 2 g/L

SMILES: O=C(O)CNC(=O)CCNCC(=O)[C@@H](O)[C@H](O)[C@H](O)CO
- lowering of the taste threshold molar concentration by a factor (sensory panel [1]): about 4
- sensory difference described by panel (sensory panel [2]): increased the spicy, savory and meaty flavours
- sensory difference described by panel (sensory panel [3]): increased the savory, fatty and spicy notes
